Experimental data published in ChEMBL document CHEMBL3769303, “Discovery of membrane active benzimidazole quinolones-based topoisomerase inhibitors as potential DNA-binding antimicrobial agents” (Eur J Med Chem, 2016).
Converted amounts (≈) assume the structure as drawn. The source made the active and inactive calls. The calls are words filed in the database; no cut-off is given here.

Tests used:
[1] = Antifungal activity against Candida mycoderma ATCC 9888 after 24 hrs by micro broth dilution method; format: functional; conditions: Candida vini
[2] = test system: Escherichia coli; experiment: Inhibition of Escherichia coli topoisomerase 4 assessed as DNA relaxation using PUC19T-DNA at 10 uM after 2 hrs by ehtidium bromide staining-based agarose gel electrophoresis
[3] = test system: Micrococcus luteus; experiment: Potency index, ratio of norfloxacin MIC to compound MIC for Micrococcus luteus ATCC 4698; format: functional, NCTC 2665
[4] = test system: Salmonella enterica; experiment: Potency index, ratio of norfloxacin MIC to compound MIC for Salmonella enterica ATCC 14028; format: functional
[5] = test system: Salmonella enterica; experiment: Antibacterial activity against Salmonella enterica ATCC 14028 by micro broth dilution method; format: functional
[6] = test system: Bacillus spizizenii; experiment: Antibacterial activity against Bacillus subtilis ATCC 6633 by micro broth dilution method; format: functional
[7] = test system: Salmonella enterica; experiment: Potency index, ratio of clinafloxacin MIC to compound MIC for Salmonella enterica ATCC 14028; format: functional
[8] = test system: Staphylococcus aureus; experiment: Bactericidal activity against methicillin-resistant Staphylococcus aureus N315 assessed as reduction in log10 CFU count at 6 times MIC after 24 hrs by time kill assay; format: functional
[9] = test system: Staphylococcus aureus; experiment: Antibacterial activity against Staphylococcus aureus ATCC 25923 by micro broth dilution method; format: functional
[10] = test system: Staphylococcus aureus; experiment: Antibacterial activity against methicillin-resistant Staphylococcus aureus N315 by micro broth dilution method; format: functional
[11] = Antibacterial activity against Bacillus proteus ATCC 13315 by micro broth dilution method; format: functional
[12] = test system: Saccharomyces cerevisiae; experiment: Antifungal activity against Saccharomyces cerevisiae ATCC 9763 after 24 hrs by micro broth dilution method; format: functional; conditions: ATCC 9763, 24 h
[13] = test system: Bacillus; experiment: Potency index, ratio of chloromycin MIC to compound MIC for Bacillus proteus ATCC 13315; format: functional
[14] = test system: Salmonella enterica; experiment: Potency index, ratio of chloromycin MIC to compound MIC for Salmonella enterica ATCC 14028; format: functional
[15] = test system: Escherichia coli; experiment: Antibacterial activity against Escherichia coli DH52 assessed as membrane permeabilization at 12 times MIC measured for 15 mins by propidium iodide staining-based method; format: functional, organism-based
[16] = test system: Shigella dysenteriae; experiment: Antibacterial activity against Shigella dysenteriae by micro broth dilution method; format: functional
[17] = test system: Escherichia coli; experiment: Antibiofilm activity against Escherichia coli DH52 after 24 hrs by crystal violet staining-based plate reader assay; format: functional, organism-based; conditions: DH52, 24 h
[18] = test system: Staphylococcus aureus; experiment: Antibacterial activity against methicillin-resistant Staphylococcus aureus N315 assessed as membrane permeabilization at 12 times MIC measured for 15 mins by propidium iodide staining-based method; format: functional, organism-based
[19] = test system: Escherichia coli; experiment: Antibacterial activity against Escherichia coli JM109 by micro broth dilution method; format: functional
[20] = test system: HEK293; experiment: Cytotoxicity against HEK293 cells after 24 hrs by CCK8 assay; format: cell-based; conditions: Homo sapiens, HEK293, 24 h
[21] = test system: Staphylococcus aureus; experiment: Antibacterial activity against methicillin-resistant Staphylococcus aureus N315 measured after 12 passages; format: functional
[22] = test system: Micrococcus luteus; experiment: Potency index, ratio of chloromycin MIC to compound MIC for Micrococcus luteus ATCC 4698; format: functional, NCTC 2665
[23] = test system: Bacillus; experiment: Potency index, ratio of clinafloxacin MIC to compound MIC for Bacillus proteus ATCC 13315; format: functional
[24] = test system: Escherichia coli; experiment: Antibiofilm activity against Escherichia coli DH52 assessed as log10 CFU count at 0.25 ug/ml after 24 hrs (reference value: 16.2 log10CFU/ml); format: functional
[25] = test system: Pseudomonas aeruginosa; experiment: Antibacterial activity against Pseudomonas aeruginosa ATCC 27853 by micro broth dilution method; format: functional
[26] = test system: Escherichia coli; experiment: Antibacterial activity against Escherichia coli DH52 by micro broth dilution method; format: functional
[27] = test system: Staphylococcus aureus; experiment: Antibiofilm activity against methicillin-resistant Staphylococcus aureus N315 assessed as log10 CFU count at 1 ug/ml after 24 hrs (reference value: 13.6 log10 CFU/ml); format: functional
[28] = test system: Micrococcus luteus; experiment: Potency index, ratio of clinafloxacin MIC to compound MIC for Micrococcus luteus ATCC 4698; format: functional, NCTC 2665
[29] = test system: Candida albicans; experiment: Antifungal activity against Candida albicans ATCC 10231 after 24 hrs by micro broth dilution method; format: functional; conditions: ATCC 10231, 24 h
[30] = test system: Aspergillus flavus; experiment: Antifungal activity against Aspergillus flavus ATCC 204304 after 24 hrs by micro broth dilution method; format: functional; conditions: ATCC 204304, 24 h
[31] = test system: Staphylococcus aureus; experiment: Antibiofilm activity against methicillin-resistant Staphylococcus aureus N315 assessed as reduction in log10 CFU count after 24 hrs; format: functional, organism-based; conditions: N315, 24 h
[32] = test system: Cyberlindnera jadinii; experiment: Antifungal activity against Candida utilis ATCC 9950 after 24 hrs by micro broth dilution method; format: functional; conditions: Williopsis jadinii, ATCC 9950, 24 h
[33] = test system: Escherichia coli; experiment: Antibiofilm activity against Escherichia coli DH52 assessed as log10 CFU count at 2 ug/ml after 24 hrs (reference value: 16.2 log10CFU/ml); format: functional
[34] = test system: Staphylococcus aureus; experiment: Antibiofilm activity against methicillin-resistant Staphylococcus aureus N315 assessed as log10 CFU count at 0.125 ug/ml after 24 hrs (reference value: 13.6 log10 CFU/ml); format: functional
[35] = test system: Calf thymus DNA; experiment: Binding affinity to calf thymus DNA by UV-visible spectroscopy; format: nucleic-acid assay; conditions: Bos taurus
[36] = test system: Micrococcus luteus; experiment: Potency index, ratio of ciprofloxacin MIC to compound MIC for Micrococcus luteus ATCC 4698; format: functional, NCTC 2665
[37] = test system: Escherichia coli; experiment: Antibiofilm activity against Escherichia coli DH52 assessed as log10 CFU count at 0.5 ug/ml after 24 hrs (reference value: 16.2 log10CFU/ml); format: functional
[38] = test system: Staphylococcus aureus; experiment: Antibiofilm activity against methicillin-resistant Staphylococcus aureus N315 assessed as log10 CFU count at 2 ug/ml after 24 hrs (reference value: 13.6 log10 CFU/ml); format: functional
[39] = test system: Micrococcus luteus; experiment: Antibacterial activity against Micrococcus luteus ATCC 4698 by micro broth dilution method; format: functional; conditions: NCTC 2665
[40] = test system: Escherichia coli; experiment: Antibiofilm activity against Escherichia coli DH52 assessed as reduction in log10 CFU count after 48 hrs; format: functional, organism-based; conditions: DH52, 48 h
[41] = test system: Escherichia coli; experiment: Antibiofilm activity against Escherichia coli DH52 assessed as log10 CFU count at 4 ug/ml after 24 hrs (reference value: 16.2 log10CFU/ml); format: functional
[42] = test system: Staphylococcus aureus; experiment: Antibiofilm activity against methicillin-resistant Staphylococcus aureus N315 assessed as log10 CFU count at 0.25 ug/ml after 24 hrs (reference value: 13.6 log10 CFU/ml); format: functional
[43] = test system: Staphylococcus aureus; experiment: Antibiofilm activity against methicillin-resistant Staphylococcus aureus N315 after 24 hrs by crystal violet staining-based plate reader assay; format: functional, organism-based; conditions: N315, 24 h

## O=C(O)c1cn(C2CC2)c2cc(N3CCN(Cc4nc5ccccc5n4Cc4ccc(Cl)cc4Cl)CC3)c(F)cc2c1=O
[1]
  MIC80: 0.25 mg/L (≈ 0.403 µM)
[2]
  inhibition: Active
[3]
  Ratio: 32
[4]
  Ratio: 32
[5]
  MIC: 0.0312 mg/L (≈ 0.0503 µM)
[6]
  MIC: 4 mg/L (≈ 6.45 µM)
[7]
  Ratio: 8
[8]
  Activity: 3 log10CFU/ml
[9]
  MIC: 8 mg/L (≈ 12.9 µM)
[10]
  MIC: 0.125 mg/L (≈ 0.201 µM)
[11]
  MIC: 0.0312 mg/L (≈ 0.0503 µM)
[12]
  MIC80: 1 mg/L (≈ 1.61 µM)
[13]
  Ratio: 1025
[14]
  Ratio: 1025
[15]
  Activity: Active
[16]
  MIC: 1 mg/L (≈ 1.61 µM)
[17]
  IC50: 0.25 mg/L (≈ 0.403 µM)
[18]
  Activity: Active
[19]
  MIC: 1 mg/L (≈ 1.61 µM)
[20]
  IC50: 106 mg/L (≈ 171 µM)
[21]
  MIC: 0.125 mg/L (≈ 0.201 µM)
[22]
  Ratio: 128
[23]
  Ratio: 16
[24]
  Activity: 12.2 log10CFU/ml
[25]
  MIC: 0.5 mg/L (≈ 0.806 µM)
[26]
  MIC: 0.125 mg/L (≈ 0.201 µM)
[27]
  Activity: 5 log10CFU/ml
[28]
  Ratio: 8
[29]
  MIC80: 0.5 mg/L (≈ 0.806 µM)
[30]
  MIC80: 0.5 mg/L (≈ 0.806 µM)
[31]
  EC50: 0.76 mg/L (≈ 1.22 µM)
[32]
  MIC80: 0.125 mg/L (≈ 0.201 µM)
[33]
  Activity: 7.2 log10CFU/ml
[34]
  Activity: 10.5 log10CFU/ml
[35]
  K: 4.3 ×10⁴ L/mol
[36]
  Ratio: 32
[37]
  Activity: 10.1 log10CFU/ml
[38]
  Activity: 0.1 log10CFU/ml
[39]
  MIC: 0.0625 mg/L (≈ 0.101 µM)
[40]
  EC50: 1.5 mg/L (≈ 2.42 µM)
[41]
  Activity: 3.6 log10CFU/ml
[42]
  Activity: 9.6 log10CFU/ml
[43]
  IC50: 0.125 mg/L (≈ 0.201 µM)

## O=C(O)c1cn(C2CC2)c2cc(N3CCN(Cc4nc5ccccc5n4Cc4ccccc4Cl)CC3)c(F)cc2c1=O
[1]
  MIC80: 4 mg/L (≈ 6.83 µM)
[5]
  MIC: 2 mg/L (≈ 3.41 µM)
[6]
  MIC: 0.5 mg/L (≈ 0.853 µM)
[9]
  MIC: 16 mg/L (≈ 27.3 µM)
[10]
  MIC: 4 mg/L (≈ 6.83 µM)
[11]
  MIC: 1 mg/L (≈ 1.71 µM)
[12]
  MIC80: 16 mg/L (≈ 27.3 µM)
[16]
  MIC: 16 mg/L (≈ 27.3 µM)
[19]
  MIC: 16 mg/L (≈ 27.3 µM)
[25]
  MIC: 2 mg/L (≈ 3.41 µM)
[26]
  MIC: 2 mg/L (≈ 3.41 µM)
[29]
  MIC80: 8 mg/L (≈ 13.7 µM)
[30]
  MIC80: 0.5 mg/L (≈ 0.853 µM)
[32]
  MIC80: 1 mg/L (≈ 1.71 µM)
[39]
  MIC: 4 mg/L (≈ 6.83 µM)

## CCCCCCCCn1c(CN2CCN(c3cc4c(cc3F)c(=O)c(C(=O)O)cn4CC)CC2)nc2ccccc21
[1]
  MIC80: 2 mg/L (≈ 3.56 µM)
[5]
  MIC: 4 mg/L (≈ 7.12 µM)
[6]
  MIC: 32 mg/L (≈ 57 µM)
[9]
  MIC: 32 mg/L (≈ 57 µM)
[10]
  MIC: 2 mg/L (≈ 3.56 µM)
[11]
  MIC: 4 mg/L (≈ 7.12 µM)
[12]
  MIC80: 4 mg/L (≈ 7.12 µM)
[16]
  MIC: 16 mg/L (≈ 28.5 µM)
[19]
  MIC: 32 mg/L (≈ 57 µM)
[25]
  MIC: 2 mg/L (≈ 3.56 µM)
[26]
  MIC: 8 mg/L (≈ 14.2 µM)
[29]
  MIC80: 8 mg/L (≈ 14.2 µM)
[30]
  MIC80: 0.5 mg/L (≈ 0.89 µM)
[32]
  MIC80: 2 mg/L (≈ 3.56 µM)
[39]
  MIC: 4 mg/L (≈ 7.12 µM)

## CCCCCCCCCCCCn1c(CN2CCN(c3cc4c(cc3F)c(=O)c(C(=O)O)cn4CC)CC2)nc2ccccc21
[1]
  MIC80: 128 mg/L (≈ 207 µM)
[5]
  MIC: 256 mg/L (≈ 414 µM)
[6]
  MIC: 128 mg/L (≈ 207 µM)
[9]
  MIC: 128 mg/L (≈ 207 µM)
[10]
  MIC: 256 mg/L (≈ 414 µM)
[11]
  MIC: 256 mg/L (≈ 414 µM)
[12]
  MIC80: 256 mg/L (≈ 414 µM)
[16]
  MIC: 256 mg/L (≈ 414 µM)
[19]
  MIC: 512 mg/L (≈ 829 µM)
[25]
  MIC: 256 mg/L (≈ 414 µM)
[26]
  MIC: 256 mg/L (≈ 414 µM)
[29]
  MIC80: 128 mg/L (≈ 207 µM)
[30]
  MIC80: 64 mg/L (≈ 104 µM)
[32]
  MIC80: 64 mg/L (≈ 104 µM)
[39]
  MIC: 256 mg/L (≈ 414 µM)

## CCn1cc(C(=O)O)c(=O)c2cc(F)c(N3CCN(CCc4nc5ccccc5[nH]4)CC3)cc21
[1]
  MIC80: 64 mg/L (≈ 138 µM)
[5]
  MIC: 32 mg/L (≈ 69 µM)
[6]
  MIC: 2 mg/L (≈ 4.31 µM)
[9]
  MIC: 64 mg/L (≈ 138 µM)
[10]
  MIC: 16 mg/L (≈ 34.5 µM)
[11]
  MIC: 16 mg/L (≈ 34.5 µM)
[12]
  MIC80: 64 mg/L (≈ 138 µM)
[16]
  MIC: 128 mg/L (≈ 276 µM)
[19]
  MIC: 32 mg/L (≈ 69 µM)
[25]
  MIC: 32 mg/L (≈ 69 µM)
[26]
  MIC: 32 mg/L (≈ 69 µM)
[29]
  MIC80: 64 mg/L (≈ 138 µM)
[30]
  MIC80: 32 mg/L (≈ 69 µM)
[32]
  MIC80: 32 mg/L (≈ 69 µM)
[39]
  MIC: 64 mg/L (≈ 138 µM)
